The text below walks through data of US9133164B2, “MIF inhibitors and their uses” (INNOV88 LLC, priority 2011, dated 2015).

For one assay, the target named is T1, Native human MIF (Homo sapiens, UniProt P14174).
T1 sequence (P14174 2-115 limits assumed): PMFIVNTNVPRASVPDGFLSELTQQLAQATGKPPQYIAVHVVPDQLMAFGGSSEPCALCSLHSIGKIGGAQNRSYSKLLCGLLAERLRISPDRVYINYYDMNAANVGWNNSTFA
In words: MIF tautomerase activity assay (HPP substrate). The format is biochemical. The conditions noted are these: absorbance at 300 nm. The method, then:
The ability of candidate compounds to inhibit this tautomerase activity is quantitated by wing hydroxyphenyl pyruvic acid (HPP) as a substrate and following the increase in absorbance due to the enzymatic formation of the HPP enol-borate complex at 300 nm in the absence and presence of a test compound. The IC50 value of compounds was determined by plotting the initial velocities determined at 300 nm as a function of a test compound's concentration. Assays were carried out in a 96 or 384 well plate format.
Representative MIF inhibitors were tested in the assay described above and the results tabulated in Table 1 wherein “A” represents ≦1 μM; “B” represents >1 μM and ≦100 μM; “C” represents >100 μM

The test system of another assay is LPS-stimulated PBMCs. Briefly: Cytokine production in LPS-stimulated human PBMCs (ELISA). The format is cell-based. The note with it: for inhibition at 2.5 µM / inhibition at 25 µM: Homo sapiens, PBMC. The source says:
MIF is secreted by monocytes/macrophages, activated T cells and several effector cells that play an important role in the perpetuation of inflammatory responses of the disease pathogenesis of several autoimmune and inflammatory disorders. MIF promotes the production of proinflammatory mediators such as tumor necrosis factor-α (TNF-α), interleukin (IL)-1β, IL-6 and IL-8 acting in an autocrine and paracrine function in the induction of proinflammatory responses. MIF has also been reported to stimulate the production of IL-17, a T helper 17 (Th17)-specific cytokine critical to the pathogenesis of several autoimmune and inflammatory diseases. […] Mono-Mac-6 Cells: The cellular efficacy of compound candidates is determined using the human monocytic cell line, Mono-Mac-6 cells (MM6 cells) as it has been shown that MM6 cells abundantly express MIF receptors CD74 and CXCR4. MIF-mediated signal transduction through these receptors may be important for the production of inflammatory mediators, including TNF-α, IL-1β, IL-6, IL-8, interferon-γ (IFN-γ) and prostaglandin E2 (PGE2) in these cells. To induce the production of inflammatory mediators, MM6 cells will be plated at a final concentration of 5×10^5 cells/ml in RPMI 1640 medium containing 1% heat-inactivated low-pyrogen fetal bovine serum, 2 mM GlutaMAX-I, 1% non-essential amino acids, 1% sodium pyruvate, 100 units/ml penicillin G and 100 μg/ml streptomycin (Gibco BRL Life Technologies). Cells will be stimulated with 100 ng/ml rhMIF purchased commercially or generated in house with or without inhibitor for 20 h at 37° C. with 5% CO2. The supernatants are stored at […] until they are to be assayed. The levels of inflammatory mediators will be determined using commercial :ELISA kits (eBiosciences). Human Peripheral Blood Mononuclear Cells (PBMCs): The cellular efficacy of compound candidates in inhibiting the production of proinflammatory mediators TNF-α, IL-1β, IL-6 and IL-8 following lipopolysaccharide (LPS) and rhMIF stimulation, and the production of T helper 17 (Th17)-specific cytokines IL-17F and IL-22 following anti-CD3/anti-CD28 stimulation, are determined in human PBMCs. To induce the production of proinflammatory cytokine mediators, cryopreserved human PBMCs (Cellular Technology Ltd.) are plated at a final concentration of 2×10^5 cells/ml in RPMI 1640 medium containing 1% heat-inactivated fetal bovine serum, 1% L-Glutamine and 1% Penicillin/Streptomycin (Lonza). Cells are pre-incubated with or without inhibitor compounds dissolved in DMSO for 1 hour, then stimulated with LPS (Sigma Aldrich) or rhMIF to yield final concentrations of <0.1% DMSO, 100 ng/ml LPS and the compound concentration of interest. The potency of the compound candidates in inhibiting cytokine production is compared, to other small molecule MIF inhibitor standards ISO-1 (EMD Chemicals) N-acetyl-p-benzoquinone imine (NAPQI) and Ibudilast (TCI America). Cells were incubated for 20 hours at 37° C., 5% CO2. For the Th17-specific cytokine production assay, cells are stimulated with 5 ug/mL plate immobilized anti-CD3 (eBioscience) and 2 ug/mL soluble anti-CD28 (eBioscience) in the presence or absence of inhibitor compounds dissolved in DMSO to yield final compound concentrations of interest at <0.1% DMSO. Cells were incubated for 72 hours at 37° C. and 5% CO2. The supernatants are stored at −20° C. until they are to be assayed by ELISA. Cell viability is determined using PrestoBlue™ Cell Viability Reagent (Invitrogen). The cytokine production levels of TNF-α, IL-1β, IL-6, IL-8, IL-17F and IL-22 are determined using commercial ELISA kits (eBiosciences). Human Rheumatoid Arthritis Synovial Fibroblast (RASF) Cell Line: RASF cells are cultured in Dulbecco's modified Eagle's medium with 15% FBS, 1% glutamine, and 1% penicillin/streptamycin (all from Gibco (Invitrogen), Gaithersburg, Md.). […]

[1] abbreviates: LPS-stimulated PBMCs, compound at 2.5 uM, 1 hour preincubation, 20 hours, read-out: percent inhibition of IL-1β production.
[2] abbreviates: LPS-stimulated PBMCs, compound at 2.5 uM, 1 hour preincubation, 20 hours, read-out: percent inhibition of IL-6 production.
The mark [3] stands for this setting: LPS-stimulated PBMCs, compound at 2.5 uM, 1 hour preincubation, 20 hours, read-out: percent inhibition of IL-8 production.
Setting [4] is: LPS-stimulated PBMCs, compound at 2.5 uM, 1 hour preincubation, 20 hours, read-out: percent inhibition of TNF-α production.
Where [5] appears, read: LPS-stimulated PBMCs, compound at 25 uM, 1 hour preincubation, 20 hours, read-out: percent inhibition of IL-1β production.
Setting [6] is: LPS-stimulated PBMCs, compound at 25 uM, 1 hour preincubation, 20 hours, read-out: percent inhibition of IL-6 production.
[7] abbreviates: LPS-stimulated PBMCs, compound at 25 uM, 1 hour preincubation, 20 hours, read-out: percent inhibition of IL-8 production.
The mark [8] stands for this setting: LPS-stimulated PBMCs, compound at 25 uM, 1 hour preincubation, 20 hours, read-out: percent inhibition of TNF-α production.
Where [9] appears, read: LPS-stimulated PBMCs, ISO-1 at 5.0 uM, 20 hours.
The mark [10] stands for this setting: LPS-stimulated PBMCs, ISO-1 at 50 uM, 20 hours.
Setting [11] is: read-out: percent inhibition of IL-1β production.
The mark [12] stands for this setting: read-out: percent inhibition of IL-6 production.
[13] abbreviates: read-out: percent inhibition of IL-8 production.
The mark [14] stands for this setting: read-out: percent inhibition of TNF-α production.

Where two headings read alike, the source gives them in different places. Where only a bound is given, the exact number is not on record here.

`C=CC(=O)N1CC(Nc2c(C#N)c(=O)n(CCOCC)c3ccccc23)C1` [Compound 3, 4-(1-Acryloyl-azetidin-3-ylamino)-1-(2-ethoxy-ethyl)-2-oxo-1,2-dihydro-quinoline-3-carbonitrile] returned an IC50 against Native human MIF above 100000 nM. The inhibition at 2.5 µM was 50 to 70% with LPS-stimulated PBMCs (setting [1]), below 10% in the assay with LPS-stimulated PBMCs (setting [2]), below 10% with LPS-stimulated PBMCs (setting [3]) and below 10% with LPS-stimulated PBMCs (setting [4]). Also, the inhibition at 25 µM was 10 to 50% in the assay on LPS-stimulated PBMCs (setting [5]), below 10% with LPS-stimulated PBMCs (setting [6]), below 10% in the assay on LPS-stimulated PBMCs (setting [7]) and 10 to 50% in the assay with LPS-stimulated PBMCs (setting [8]).

At Native human MIF, `C=CC(=O)N1CCC(Nc2c(C#N)c(=O)n(C)c3ccccc23)CC1` [Compound 4, 4-(1-Acryloyl-piperidin-4-ylamino)-1-methyl-2-oxo-1,2-dihydro-quinoline-3-carbonitrile] had an IC50 above 100000 nM. The inhibition at 2.5 µM in the assay on LPS-stimulated PBMCs (setting [1]) was 10 to 50%; in the assay on LPS-stimulated PBMCs (setting [2]) it was 10 to 50%; in the assay with LPS-stimulated PBMCs (setting [3]) it was below 10%; with LPS-stimulated PBMCs (setting [4]), below 10%. Also, the inhibition at 25 µM with LPS-stimulated PBMCs (setting [5]) was 50 to 70%; with LPS-stimulated PBMCs (setting [6]), below 10%; in the assay on LPS-stimulated PBMCs (setting [7]), below 10%; with LPS-stimulated PBMCs (setting [8]), 10 to 50%.

At Native human MIF, `Cn1c(=O)c(C#N)c(NC2CCN(C(=O)c3cccs3)CC2)c2ccccc21` [Compound 5] came in with a 50% inhibitory concentration (IC50) of at most 1000 nM. Also, the inhibition at 2.5 µM with LPS-stimulated PBMCs (setting [1]) is 50 to 70%; in the assay on LPS-stimulated PBMCs (setting [2]), 10 to 50%; with LPS-stimulated PBMCs (setting [3]), below 10%; in the assay with LPS-stimulated PBMCs (setting [4]) it was 10 to 50%. Besides, the inhibition at 25 µM is above 70% with LPS-stimulated PBMCs (setting [5]), below 10% in the assay on LPS-stimulated PBMCs (setting [6]), below 10% with LPS-stimulated PBMCs (setting [7]) and 50 to 70% with LPS-stimulated PBMCs (setting [8]).

Regarding `Cn1c(=O)c(C#N)c(NC2CN(C(=O)c3cccs3)C2)c2ccccc21` [Compound 6], at Native human MIF, the concentration for half-maximal inhibition (IC50) is at most 1000 nM. The inhibition at 2.5 µM with LPS-stimulated PBMCs (setting [1]) is 10 to 50%; in the assay on LPS-stimulated PBMCs (setting [2]), 10 to 50%; in the assay with LPS-stimulated PBMCs (setting [3]), below 10%; with LPS-stimulated PBMCs (setting [4]), 10 to 50%. The inhibition at 25 µM with LPS-stimulated PBMCs (setting [5]) is 10 to 50%; in the assay on LPS-stimulated PBMCs (setting [6]), 10 to 50%; in the assay on LPS-stimulated PBMCs (setting [7]) it was below 10%; in the assay on LPS-stimulated PBMCs (setting [8]), 10 to 50%.

As for `N#Cc1c(NC2CN(C(=O)c3ccncc3)C2)c2ccccc2n(Cc2ccc(F)cc2)c1=O` [Compound 7], the IC50 against Native human MIF is at most 1000 nM. For the same compound, the inhibition at 2.5 µM was 50 to 70% in the assay with LPS-stimulated PBMCs (setting [1]), 10 to 50% in the assay with LPS-stimulated PBMCs (setting [2]), below 10% in the assay with LPS-stimulated PBMCs (setting [3]) and 10 to 50% in the assay with LPS-stimulated PBMCs (setting [4]). The inhibition at 25 µM with LPS-stimulated PBMCs (setting [5]) was above 70%; in the assay on LPS-stimulated PBMCs (setting [6]), below 10%; in the assay with LPS-stimulated PBMCs (setting [7]), below 10%; with LPS-stimulated PBMCs (setting [8]), above 70%.

`N#Cc1c(NC2CN(C(=O)c3cccs3)C2)c2ccccc2n(Cc2ccc(F)cc2)c1=O` [Compound 8] yielded a concentration for half-maximal inhibition (IC50) at Native human MIF of at most 1000 nM. Further, the inhibition at 2.5 µM in the assay on LPS-stimulated PBMCs (setting [1]) is 50 to 70%; in the assay on LPS-stimulated PBMCs (setting [2]), below 10%; in the assay on LPS-stimulated PBMCs (setting [3]), below 10%; in the assay on LPS-stimulated PBMCs (setting [4]), 10 to 50%. Moreover, the inhibition at 25 µM is above 70% with LPS-stimulated PBMCs (setting [5]), 10 to 50% in the assay with LPS-stimulated PBMCs (setting [6]), below 10% in the assay with LPS-stimulated PBMCs (setting [7]) and 10 to 50% in the assay with LPS-stimulated PBMCs (setting [8]).

For `COC(=O)CC1CC(c2ccc(O)cc2)=NO1` (stereo not drawn) [ISO-1, reference compound], in the assay with LPS-stimulated PBMCs (setting [9]), the “percent inhibition of IL-1β production” value is “F (“F” represents >50% inhibition and ≦70% inhibition)”; the “percent inhibition of IL-6 production” value was “D (“D” represents ≦10% inhibition)”; the “percent inhibition of IL-8 production” value is recorded as “D (“D” represents ≦10% inhibition)”; the “percent inhibition of TNF-α production” value was “E (“E” represents >10% inhibition and ≦50% inhibition)”. In the assay with LPS-stimulated PBMCs (setting [10]), the “percent inhibition of IL-1β production” value is reported as “G (“G” represents >70% inhibition)”; the “percent inhibition of IL-6 production” value was “F (“F” represents >50% inhibition and ≦70% inhibition)”; the “percent inhibition of IL-8 production” value is “E (“E” represents >10% inhibition and ≦50% inhibition)”; the “percent inhibition of TNF-α production” value is “G (“G” represents >70% inhibition)”.

`CC(C)C(=O)c1c(C(C)C)nn2ccccc12` [Ibudilast, reference compound]: the inhibition at 2.5 µM was 50 to 70% in the assay on LPS-stimulated PBMCs (setting [1]), below 10% with LPS-stimulated PBMCs (setting [2]), below 10% with LPS-stimulated PBMCs (setting [3]) and above 70% with LPS-stimulated PBMCs (setting [4]). Besides, the inhibition at 25 µM in the assay with LPS-stimulated PBMCs (setting [5]) is above 70%; with LPS-stimulated PBMCs (setting [6]), below 10%; with LPS-stimulated PBMCs (setting [7]), below 10%; in the assay on LPS-stimulated PBMCs (setting [8]) it was above 70%.

As to `CC(=O)N=C1C=CC(=O)C=C1` [NAPQI, N-acetyl-p-benzoquinone imine, reference compound], the inhibition at 2.5 µM in the assay on LPS-stimulated PBMCs (setting [11]) is 10 to 50%; in the assay on LPS-stimulated PBMCs (setting [12]), below 10%; in the assay with LPS-stimulated PBMCs (setting [13]), below 10%; in the assay on LPS-stimulated PBMCs (setting [14]), below 10%. The inhibition at 25 µM is above 70% with LPS-stimulated PBMCs (setting [11]), below 10% in the assay with LPS-stimulated PBMCs (setting [12]), below 10% in the assay with LPS-stimulated PBMCs (setting [13]) and above 70% in the assay with LPS-stimulated PBMCs (setting [14]).
